Measured values: patent publication US9828338B2, “Carbamate derivatives of lactam based N-acylethanolamine acid amidase (NAAA) inhibitors” (The Regents of the University of California, priority 2013, dated 2017)

What follows are compounds tested against T1, human NAAA (Homo sapiens, UniProt Q02083) (assay: Fluorogenic h-NAAA assay). Settings: not given.
T1 construct: made in house; host or cells: HEK293 cells, stably transfected; soluble lysosomal fraction used as enzyme source
T1 sequence (Q02083 29-359): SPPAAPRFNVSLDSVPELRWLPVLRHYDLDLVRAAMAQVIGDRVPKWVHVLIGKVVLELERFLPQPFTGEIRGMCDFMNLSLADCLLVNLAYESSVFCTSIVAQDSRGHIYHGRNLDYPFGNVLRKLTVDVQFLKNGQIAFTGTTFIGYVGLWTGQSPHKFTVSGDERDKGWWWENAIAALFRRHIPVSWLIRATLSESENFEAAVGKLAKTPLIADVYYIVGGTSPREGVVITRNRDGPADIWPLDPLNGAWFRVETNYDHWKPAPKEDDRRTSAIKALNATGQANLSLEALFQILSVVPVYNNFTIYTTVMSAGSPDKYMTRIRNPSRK
Assay type: biochemical
Method: Hek293 cells stably transfected with the human NAAA coding sequence cloned from a human spleen cDNA library were used as enzyme source. Recombinant HEK-hNAAA pellets were resuspended in homogenizing buffer, and sonicated. Samples were centrifuged at 800×g for 15 min at 4° C. and the resultant supernatants were then ultracentrifuged at 12,000×g for 30 min at 4° C. The pellets were resuspended in PBS pH 7.4 on ice and subjected to a freeze/thaw cycle at −80° C. The suspension was finally centrifuged at 105,000×g for 1 h at 4° C. Protein concentration was measured and samples aliquoted and stored at −80° C. until use.
The assay was run in Optiplate 96-wells black plates, in a total reaction volume of 200 μL. NAAA protein preparation (4.0 μg) was pre-incubated for 10 min with various concentrations of test compounds or vehicle control (5% DMSO) in 100 mM citrate/phosphate buffer (pH 4.5) containing 3.0 mM DTT, 0.1% Triton X-100, 0.05% BSA, 150 mM NaCl. N-(4-methyl-2-oxo-chromen-7-yl)-hexadecanamide was used as a substrate (5.0 μM) and the reaction carried over for 30 min at 37° C. The samples were then read in a Perkin Elmer Envision plate reader using an excitation wavelength of 360 nm and emission 460 nm. IC50 values were calculated by non-linear regression analysis of log [concentration]/inhibition curves using GraphPad Prism 5 (GraphPad Software Inc., CA—USA) applying a standard slope curve fitting.

| IC50 | SMILES |
| --- | --- |
| 6 nM | CCC[C@H]1CC[C@H](COC(=O)N[C@H]2CNC2=O)CC1 [Example 104] |
| 1230 nM | Cc1ccc(COC(=O)N[C@H]2CNC2=O)cc1 [Example 94, p-Tolylmethyl-N-[(3S)-2-oxoazetidin-3-yl]-carbamate] |
| 237 nM | O=C(N[C@H]1CNC1=O)OCc1ccc(-c2ccccc2)c(F)c1 [Example 60, (3-Fluoro-4-phenyl-phenyl)-methyl-N-[(3S)-2-oxoazetidin-3-yl]-carbamate] |
| 675 nM | O=C(N[C@H]1CNC1=O)OCc1ccc(-c2nc3ccccc3o2)cc1 [Example 54, [4-(1,3-Benzoxazol-2-yl)-phenyl]-methyl-N-[(3S)-2-oxoazetidin-3-yl]-carbamate] |
| 365 nM | O=C(N[C@H]1CNC1=O)OCc1ccc(-c2ccccc2F)cc1 [Example 71, [4-(2-Fluorophenyl)-phenyl]-methyl-N-[(3S)-2-oxoazetidin-3-yl]-carbamate] |
| 619 nM | C[C@@H]1NC(=O)[C@@H]1NC(=O)OCc1ccc(C2CCCCC2)cc1 [Example 85, (4-Cyclohexylphenyl)-methyl-N-[(2S,3R)-2-methyl-4-oxo-azetidin-3-yl]-carbamate] |
| 6 nM | C#CCCCCCCCCCOC(=O)N[C@H]1CNC1=O [Example 103, Undec-10-ynyl-N-[(3S)-2-oxoazetidin-3-yl]-carbamate] |

Same assay, conditions: @ 2.5 μM; read-out: h-NAAA Fluorogenic assay % inhib.

| SMILES | inhibition at […] |
| --- | --- |
| O=C(N[C@H]1CNC1=O)OCc1ccc(-c2ccccc2)nc1 [Example 67, (6-Phenyl-3-pyridyl)-methyl-N-[(3S)-2-oxoazetidin-3-yl]-carbamate] | 60% |
| O=C(N[C@H]1CNC1=O)OCc1ccc(C(=O)N2CCCCC2)cc1 [Example 69, [4-(Piperidine-1-carbonyl)-phenyl]-methyl-N-[(3S)-2-oxoazetidin-3-yl]-carbamate] | 12% |
| O=C(N[C@H]1CNC1=O)OCc1ccc(C(=O)NC2CCCCC2)cc1 [Example 68, [4-(Cyclohexylcarbamoyl)-phenyl]-methyl-N-[(3S)-2-oxoazetidin-3-yl]-carbamate] | 18% |
| O=C(N[C@H]1CNC1=O)OCc1ccc(OC2CC3CCC2C3)cc1 (mixture of isomers) [Example 102, 4-[(1R,2R,4S)- and (1S,2S,4R)-Norbornan-2-yl]-oxyphenyl]-methyl-N-[(3S)-2-oxoazetidin-3-yl]-carbamate] | 95% |
| C[C@@H]1NC(=O)[C@@H]1NC(=O)OCc1ccc(-c2ccccc2)cc1 [Example 84, (4-Phenylphenyl)-methyl-N-[(2S,3R)-2-methyl-4-oxo-azetidin-3-yl]-carbamate] | 18% |
| O=C(N[C@H]1CNC1=O)OCCCc1ccccc1 [Example 27, 3-Phenylpropyl-N-[(3S)-2-oxoazetidin-3-yl]-carbamate] | 45% |
| O=C(N[C@H]1CNC1=O)OCCCOC1CCCCC1 [Example 50, 3-(Cyclohexoxy)-propyl-N-[(3S)-2-oxoazetidin-3-yl]-carbamate] | 25% |
| O=C(N[C@H]1CNC1=O)OCC1CCC(F)(F)CC1 [Example 99, (4,4-Difluorocyclohexyl)-methyl-N-[(3S)-2-oxoazetidin-3-yl]-carbamate] | 35% |
| O=C(N[C@H]1CNC1=O)OCc1ccc(C(=O)NCc2ccccc2)cc1 [Example 70, [4-(Benzylcarbamoyl)-phenyl]-methyl-N-[(3S)-2-oxoazetidin-3-yl]-carbamate] | 40% |
| O=C(N[C@H]1CNC1=O)OCc1cnc(-c2ccccc2)nc1 [Example 98, (2-Phenylpyrimidin-5-yl)-methyl-N-[(3S)-2-oxoazetidin-3-yl]-carbamate] | 26% |

Same assay, conditions: @ 50 μM; read-out: h-NAAA Fluorogenic assay % inhib.

| inhibition at 50 µM | SMILES |
| --- | --- |
| 55% | O=C(N[C@H]1CNC1=O)OCCCCc1cccnc1 [Example 47, 4-(3-Pyridyl)-butyl-N-[(3S)-2-oxoazetidin-3-yl]-carbamate] |
| 65% | O=C(N[C@H]1CNC1=O)OCCc1ccccc1 [Example 28, Phenethyl-N-[(3S)-2-oxoazetidin-3-yl]-carbamate] |

| SMILES | inhibition at 50 µM |
| --- | --- |
| O=C(N[C@H]1CNC1=O)OCc1ccc(C(=O)N2CCOCC2)cc1 [Example 53, [4-(Morpholine-4-carbonyl)-phenyl]-methyl-N-[(3S)-2-oxoazetidin-3-yl]-carbamate] | 55% |

What follows are compounds tested against T2, r-NAAA (Rattus norvegicus, UniProt Q5KTC7) (assay: UPLC/MS r-NAAA assay). Settings: not given.
T2 construct: Lysosomal NAAA protein preparation was obtained by homogenizing male Sprague-Dawley rat lungs; tissue Charles River (animals); host or cells: male Sprague-Dawley rat lung, soluble lysosomal fraction
T2 sequence (Q5KTC7 34-362): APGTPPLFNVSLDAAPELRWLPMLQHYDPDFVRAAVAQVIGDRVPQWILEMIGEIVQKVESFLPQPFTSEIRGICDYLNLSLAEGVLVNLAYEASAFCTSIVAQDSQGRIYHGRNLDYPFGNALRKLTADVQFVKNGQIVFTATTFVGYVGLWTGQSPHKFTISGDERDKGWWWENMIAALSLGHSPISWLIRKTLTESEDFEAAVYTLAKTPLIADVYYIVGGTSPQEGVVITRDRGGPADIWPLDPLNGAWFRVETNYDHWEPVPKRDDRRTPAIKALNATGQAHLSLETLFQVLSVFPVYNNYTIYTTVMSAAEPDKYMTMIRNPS
Assay type: biochemical
Method: Lysosomal NAAA protein preparation was obtained by homogenizing male Sprague-Dawley rat lungs (Charles River) in 20 mM Tris-HCl buffer pH 7.4 containing 0.32M sucrose. […] Supernatants were then centrifuged at 12,000 xg for 30 min at 4° C. Pellets were then resuspended in PBS pH 7.4 and subjected to a freeze/thaw cycle at −80° C. The suspension was finally centrifuged at 105,000×g for 1 h at 4° C. The supernatant was then used in the enzymatic assay.
NAAA protein preparation was pre-incubated with various concentrations of test compounds or vehicle control in 100 mM NaH2PO4/Citrate buffer, 1% Triton-X, 3 mM DTT (pH 4.5) for 30 min at 37° C. Samples were then incubated with heptadecenoylethanolamide (50 μM, Avanti Polar Lipids) at 37° C. for 30 min. The reaction was terminated by addition of cold methanol containing heptadecanoic acid (NuCheck Prep) as internal standard. Samples were then analyzed by UPLC/MS (Acquity, Waters). […] The column temperature was 40° C. Electrospray ionization was in the negative mode, capillary voltage was 0.5 kV, cone voltage was […], desolvation temperature was 500° C. N2 was used as drying gas at a flow rate of 1000 L/hour and a temperature of 500° C. […] Calibration curves were generated using commercial heptadecenoic acid (NuCheck Prep) Inhibition of NAAA activity was calculated as reduction of heptadecenoic acid in the samples compared to vehicle controls. IC50 values were calculated by non-linear regression analysis of log [concentration]/inhibition curves using GraphPad Prism 5 (GraphPad Software Inc., CA—USA) applying a standard slope curve fitting.

| SMILES | IC50 |
| --- | --- |
| CC(CCCCc1ccccc1)OC(=O)N[C@H]1CNC1=O (mixture of isomers) [Example 15, [(1S)- and (1R)-(1-Methyl-5-phenyl-pentyl)]-N-[(3S)-2-oxoazetidin-3-yl]-carbamate] | 3900 nM |
| O=C(N[C@H]1CNC1=O)OCCCC1CCCCC1 [Example 18, 3-Cyclohexylpropyl-N-[(3S)-2-oxoazetidin-3-yl]-carbamate] | 40 nM |
| O=C(N[C@@H]1CNC1=O)OCCCCCc1ccccc1 [Example 4, 5-Phenylpentyl-N-[(3R)-2-oxoazetidin-3-yl]-carbamate] | 18700 nM |
| Cc1ccccc1-c1ccc(COC(=O)N[C@H]2CNC2=O)cc1C [Example 41, [3-Methyl-4-(o-tolyl)-phenyl]-methyl-N-[(3S)-2-oxoazetidin-3-yl]-carbamate] | 910 nM |
| Cc1cccc(C)c1CCCCOC(=O)N[C@H]1CNC1=O [Example 14, 4-(2,6-Dimethylphenyl)-butyl-N-[(3S)-2-oxoazetidin-3-yl]-carbamate] | 8100 nM |
| O=C(N[C@H]1CNC1=O)Oc1ccc(Cc2ccccc2)cc1 [Example 33, (4-Benzylphenyl)-N-[(3S)-2-oxoazetidin-3-yl]-carbamate] | 21000 nM |
| CCCCCCCOC(=O)N[C@@H]1CNC1=O [Example 2, Heptyl-N-[(3R)-2-oxoazetidin-3-yl]-carbamate] | 66000 nM |
| CCc1ccc(CCCCOC(=O)N[C@H]2CNC2=O)cc1 [Example 39, 4-(4-Ethylphenyl)-butyl-N-[(3S)-2-oxoazetidin-3-yl]-carbamate] | 1000 nM |
| CC(C)(CCCCc1ccccc1)OC(=O)N[C@H]1CNC1=O [Example 16, (1,1-Dimethyl-5-phenyl-pentyl)-N-[(3S)-2-oxoazetidin-3-yl]-carbamate] | 8000 nM |

Second part, the compound after the results:

| IC50 | SMILES |
| --- | --- |
| 12600 nM | O=C(N[C@H]1CNC1=O)OCCCCC1CCOCC1 [Example 48, 4-Tetrahydropyran-4-yl-butyl-N-[(3S)-2-oxoazetidin-3-yl]-carbamate] |
| 2800 nM | C[C@@H]1NC(=O)[C@H]1NC(=O)OCCCCCc1ccccc1 [Example 75, 5-Phenylpentyl-N-[(2S,3S)-2-methyl-4-oxo-azetidin-3-yl]-carbamate] |
| 21500 nM | C[C@H]1NC(=O)[C@@H]1NC(=O)OCCCCC1CCCCC1 [Example 80, 4-Cyclohexylbutyl-N-[(2R,3R)-2-methyl-4-oxo-azetidin-3-yl]-carbamate] |

Same assay, conditions: read-out: r-NAAA UPLC/MS assay % inhib.

| SMILES | inhibition at 30 µM |
| --- | --- |
| O=C(N[C@H]1CNC1=O)OCc1cccc(-c2ccccc2)c1 [Example 62, (3-Phenylphenyl)-methyl-N-[(3S)-2-oxoazetidin-3-yl]-carbamate] | 45% |
